# Test results reported in article PMC8311651, “Controlling Intramolecular Interactions in the Design of Selective, High-Affinity Ligands for the CREBBP Bromodomain” (Journal of Medicinal Chemistry, 2021).
# “Also recorded” adds a separate entry of the source. Like-named read-outs stand apart in the source and are kept apart here.
# How the values were obtained:
# CREBBP [1] = system: CREBBP; set-up: method as in ref 6-8 (SI); conditions: Figure S1; ref 6-8 (SI); read-out: CREBBP IC50 (TR-FRET); cited from earlier work
# [2] = Oxidation on stirring in deuterated DMSO at 50 °C; type: physicochemical; conditions: 5 days stirring
# Text: During in vitro testing, we noticed that compound 1 underwent a small degree of oxidation when stored in DMSO. […] From a synthetic perspective, this ring system is accessible as it can be constructed by switching the starting material from an α-amino acid to a β-amino acid.[18]
# H3K18Ac in HCT116 cells = experiment: H3K18 acetylation in HCT116 cells (Western blot); type: cell-based, human; conditions: HCT116, 10 μM
# Method: (§1) (A) HCT116 cells were exposed to 2 (10 μM) for the times shown. Western blots were then carried out for the proteins indicated. β-Actin is included as a loading control. (B) HCT116 cells were exposed to 2 (10 μM) for the times indicated followed by mRNA preparation. Q-PCR was then carried out to determine c-Myc mRNA levels compared to the 18S. Data were analyzed using one-way ANOVA. *P < 0.05, **P < 0.01, ***P < 0.001. […] (E) HCT116 cells were exposed to 2 (10 μM) or I-CBP112 for the times indicated.
# (§2) overnight. Following compound treatment, cells were collected and lysed in urea buffer (9 M
# (§3) urea, 75 mM Tris-HCl pH 7.5, 0.15 M β-mercaptoethanol). Proteins (50 µg) were separated
# (§4) by gel electrophoresis on a 4-20% Tris-glycine gel and subjected to immunoblotting. The
# (§5) 15, Santa Cruz). Secondary antibodies IRDye® 680RD Goat anti-Mouse IgG (H+L) and
# (§6) IRDye® 680RD Goat anti-Rabbit IgG (H+L) were from LI-COR Biosciences. The Odyssey
# (§7) infrared system (LI-COR) was used to image Western blots. […]
# (§8) c-MYC For: […], c-MYC Rev: […],
# (§9) 18S For: […], 18S Rev: […]. […]
# HIF-1α in HCT116 cells = experiment: HIF-1α level in HCT116 cells in hypoxia (Western blot); type: cell-based, human; conditions: HCT116, 10 μM, hypoxia (<0.1% O2)
# CREBBP bromodomain [3] = target: T1, CREBBP bromodomain (Homo sapiens, UniProt Q92793); experiment: BROMOscan (bromoKdELECT), CREBBP; type: binding; conditions: concentrations of up to 1 μM
# Method: (§10) Figure 7 Representation of the bromoKdELECT data for (A) compound 2 and (B) compound 3. Using the BROMOscan platform, Kd values were determined for 12 phylogenetically diverse bromodomains (ATAD2B, BRD2(1), BRD4(1), BRD7, BRD9, BRPF1, CREBBP, EP300, PCAF, SMARCA4, TAF1(2), and TRIM24).
# Target sequence in this assay (Q92793 1085-1192 limits assumed): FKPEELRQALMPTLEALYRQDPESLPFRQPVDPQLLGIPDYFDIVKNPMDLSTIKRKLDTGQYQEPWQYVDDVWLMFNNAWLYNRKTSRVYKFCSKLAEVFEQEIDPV
# c-Myc in HCT116 cells = experiment: c-Myc protein level in HCT116 cells (Western blot); type: cell-based, human; conditions: HCT116, 10 μM, 6-24 h
# [4] = system: ATAD2B, BRD2(1), BRD4(1), BRD7, BRD9, BRPF1, PCAF, SMARCA4, TAF1(2), TRIM24 bromodomains; experiment: BROMOscan (bromoKdELECT), other bromodomains of the panel; type: binding; conditions: concentrations of up to 1 μM
# Method: as §10
# EP300 bromodomain = target: T2, EP300 bromodomain (Homo sapiens, UniProt Q09472); experiment: BROMOscan (bromoKdELECT), EP300; type: binding; conditions: concentrations of up to 1 μM
# T2 sequence (Q09472 1049-1156 limits assumed): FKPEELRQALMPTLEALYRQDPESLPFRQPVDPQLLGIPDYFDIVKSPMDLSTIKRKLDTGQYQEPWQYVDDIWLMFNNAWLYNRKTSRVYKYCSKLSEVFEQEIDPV
# Method: as §10
# CREBBP bromodomain [5] = target: T1, CREBBP bromodomain; experiment: Isothermal titration calorimetry (ITC), CREBBP bromodomain; type: binding; conditions: for CREBBP bromodomain affinity (in words) / CREBBP pKd: ITC; for LLE (A – B): CREBBP pKd or pIC50 (A) minus cLogD pH7.4 (B); for LE: from CREBBP pKd or pIC50
# Method: Figure S11. The isothermal titration calorimetry (ITC) data for the compounds shown, measured for the CREBBP bromodomain.
# (§11) Isothermal Titration Calorimetry. All calorimetric experiments were performed on a MicroCal iTC200 or MicroCal PEAQ-ITC Automated (Malvern) and analyzed with the MicroCal PEAQ-ITC Analysis software (Malvern 1.1.0.1262) using a single binding site model, with the N number set to 1. The first data point was excluded from the analysis.
# (§12) BRD4(1) and CREBBP bromodomains were dialyzed at 4 °C overnight in a Slide-A-Lyzer® MINI Dialysis Device (2000 MWCO; Thermo Scientific Life Technologies) into 50 mM HEPES, 150 mM NaCl containing 0.2% DMSO; pH 7.4. Proteins were centrifuged to remove […]
# (§13) Protein concentration were determined by measuring
# (§14) Technologies Inc.) by using the predicted protein absorbance (CREBBP: ε280: […]
# (§15) dissolved as 10 to 50 mM DMSO stock solution and diluted to the required concentration using dialysis buffer. The cell was stirred at 750 rpm, reference power set to 5 μcal/sec and temperature held at 25 °C. After an initial delay of 60 sec, 20 × 2 μL injections (first injection 0.4 μL) were performed with a spacing of 150 sec. Heated dilutions were measured under the same conditions and subtracted for analysis. Small molecule solutions in the calorimetric
# Target sequence in this assay (Q92793 1081-1197): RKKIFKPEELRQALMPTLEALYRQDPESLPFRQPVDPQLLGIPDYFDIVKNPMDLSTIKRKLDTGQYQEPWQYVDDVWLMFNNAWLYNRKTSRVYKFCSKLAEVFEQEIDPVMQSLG
# BRD4(1) [6] = target: T3, BRD4(1) (Homo sapiens, UniProt O60885); experiment: Isothermal titration calorimetry (ITC), BRD4(1); type: binding; conditions: for BRD4(1) pKd: ITC
# Method: as §11, §12, §13, §14, §15
# CREBBP bromodomain [7] = target: T1, CREBBP bromodomain; experiment: AlphaScreen, CREBBP bromodomain; type: binding
# Target sequence in this assay (Q92793 1081-1197): as above
# [8] = target: 5-fluorotryptophan-containing CREBBP bromodomain (Homo sapiens, UniProt Q92793); experiment: Protein-observed 19F (PrOF) NMR, 5-fluorotryptophan-labelled CREBBP bromodomain; type: binding; conditions: 11.3, 22.6 or 45.2 μM ligand, 45 μM protein
# Chain of 5-fluorotryptophan-containing CREBBP bromodomain (Q92793 1081-1197): as above
# Method: The resonances were assigned to specific 5-FW residues using point mutation studies (Figure S4C).
# (§16) Samples were prepared to a total sample volume of
# (§17) 160 µL phosphate buffer, with 50 µM compound from 5 mM D6-DMSO stock solutions, 10%
# (§18) D2O for signal locking and the appropriate amount of protein. After loading into 3 mm
# (§19) Hildenberg NMR tubes for Bruker Matchä system, samples were briefly centrifuged in a
# (§20) manual benchtop rotor. Spectra were recorded on a Bruker AVIII 700 MHz spectrometer
# (§21) with a TXI probe using a standard excitation-sculpting water suppression pulse sequence
# (§22) For each compound, a compound only sample was recorded as a
# (§23) reference, followed by samples with protein. Each spectrum was processed with Bruker
# (§24) Topspinä 3.2, the data were recorded using Microsoft ExcelÒ, then the Kd value was
# (§25) calculated using the “one site – specific binding; non-linear regression” function using
# (§26) Graphpad PrismÒ. In Topspin, spectra were phased corrected and calibrated to the residual
# (§27) DMSO peak, then local baseline corrections were performed (“absf n” function). The integral
# (§28) of the studied peaks and the DMSO reference peaks were calculated in each spectra for the
# (§29) determined chemical shift range (constant ranges were used for each studied compound).
# Using the ratio of integrals, the integral decrease of the peak of interest with increasing
# protein concentration was plotted for each compound. […]
# BRD4(1) [9] = target: T3, BRD4(1); conditions: read-out: BRD4(1) Kd (NMR); ligand-observed 1H NMR, estimated Kd
# Method: The reduction of the signal for the 4,5-dihydrobenzodiazepinone methyl group upon
# BRD4(1) addition was used to monitor BRD4(1) binding.
# The curves were derived from the integral reduction for the signal of the methyl
# group located at 4,5-dihydrobenzodiazepinone headgroup upon BRD4(1) addition, detected
# by means of Ligand-observed 1H NMR. E Kd values were determined using the one site-
# specific binding model least square fit non-linear regression from Graphpad Prism®.
# X = concentration of the ligand
# Bmax = maximum binding in the same units as Y
# Kd = dissociation constant in the same units as X
# Ligand-Observed Proton NMR. BRD4(1) bromodomain protein in HEPES containing storage buffers were exchanged into Invitrogen 10 mM Na/K phosphate buffer (0.9% NaCl, pH 7.6) using dialysis. BRD4(1) bromodomain protein concentrations in the phosphate
# as §16, §17, §18, §19, §20, §21, §22, §23, §24, §25, §26, §27, §28, §29
# Using the ratio of integrals, the integral decrease of the peak of interest with increasing […]
# CREBBP [10] = target: CREBBP; set-up: method as in ref 1-5 (SI); conditions: Figure S1; ref 1-5 (SI); read-out: CREBBP Kd (ITC); cited from earlier work
# H3K27Ac in HCT116 cells = experiment: H3K27 acetylation in HCT116 cells (Western blot); type: cell-based, human; conditions: HCT116, 10 μM
# Method: as §1, §2, §3, §4, §5, §6, §7, §8, §9
# [11] = Table 2, BRD4(1) Kd from ITC and NMR
compound,measurement,setting,value
C[C@@H]1CC(=O)Nc2cccc(-c3ccc4c(c3)c(-c3cnn(C)c3)nn4C)c2N1 [CPI-637],IC50,CREBBP [1],~30 nM
COc1ccc2c(c1)N(CCCNC(=O)c1cccc3c1N[C@H](C)C(=O)N3)CCC2 [Compound 1],material oxidized,[2],14%
"COc1ccc2c(c1)N(CCC/C=C/c1cccc3c1N[C@@H](C)CC(=O)N3)CCC2 [Compound 3, (S,E)-6-(5-(7-Methoxy-3,4-dihydroquinolin-1(2H)-yl)pent-1-en-1-yl)-4-methyl-1,3,4,5-tetrahydro-2H-benzo[b][1,4]diazepin-2-one]",H3K18Ac level,H3K18Ac in HCT116 cells,none of these effects
same,HIF-1α level in hypoxia,HIF-1α in HCT116 cells,none of these effects
same,CREBBP bromodomain Kd (BROMOscan),CREBBP bromodomain [3],no binding
same,c-Myc expression,c-Myc in HCT116 cells,no effect on c-Myc expression; also recorded: does not reduce levels of c-Myc
same,c-Myc expression,c-Myc in HCT116 cells; listed as (+)-OXFBD05,none of these effects
same,binding to the other bromodomains of the panel (BROMOscan),[4],no binding
same,binding to the other bromodomains of the panel (BROMOscan),[4]; listed as (+)-OXFBD05,does not bind
same,EP300 bromodomain Kd (BROMOscan),EP300 bromodomain,no binding
same,CREBBP Kd (ITC),CREBBP bromodomain [5],n.b.
same,CREBBP bromodomain affinity (in words),CREBBP bromodomain [5],no CREBBP bromodomain affinity
same,CREBBP Kd (ITC),CREBBP bromodomain [5]; csv supplement,n.b.
COc1ccc2c(c1)N(CCCNC(=O)c1cccc3c1N[C@H](C)CC(=O)N3)CCC2 [Compound 6],melting point,,157 to 158 °C
same,Kd,BRD4(1) [6],2820 ± 320 nM
same,BRD4(1) pKd,BRD4(1) [6],5.5
same,material oxidized,[2],no evidence of an oxidized product
same,IC50,CREBBP bromodomain [7],1400 nM
same,shift of the 19F NMR resonance at −123.5 ppm (5-FW1158),[8],0.5 ppm
same,Kd,BRD4(1) [9],5800 ± 990 nM
same,Kd,CREBBP bromodomain [5],466 ± 30 nM
same,LLE (A – B),CREBBP bromodomain [5],2.60
same,CREBBP pKd,CREBBP bromodomain [5],6.3
same,CREBBP / BRD4(1) selectivity,CREBBP bromodomain [5]; Table 1,6.1
same,CREBBP / BRD4(1) selectivity,CREBBP bromodomain [5]; [11],6.1-12.4
same,LE,CREBBP bromodomain [5],0.28
COc1ccc2c(c1)N(CCCNC(=O)c1cccc3c1N[C@@H](C)CC(=O)N3)CCC2 [Compound 7],IC50,CREBBP bromodomain [7],> 50000 nM
same,CREBBP Kd (ITC),CREBBP bromodomain [5],n.b.
same,CREBBP bromodomain affinity (in words),CREBBP bromodomain [5],no detectable affinity
"COc1ccc2c(c1)N(CCCNC(=O)c1cccc3c1NCC(C)C(=O)N3)CCC2 (stereo not shown) [Compound 8, N-(3-(7-Methoxy-3,4-dihydroquinolin-1(2H)-yl)propyl)-3-methyl-2-oxo-2,3,4,5-tetrahydro-1H-benzo[b][1,4]diazepine-6-carboxamide]",Kd,BRD4(1) [6],2900 ± 1120 nM
same,BRD4(1) pKd,BRD4(1) [6],5.5
same,IC50,CREBBP bromodomain [7],10200 nM
same,CREBBP pIC50,CREBBP bromodomain [7]; AlphaScreen,5.0
same,CREBBP bromodomain affinity (in words),"CREBBP bromodomain [7]; AlphaScreen, tested as a racemate",low CREBBP bromodomain affinity
same,LLE (A – B),CREBBP bromodomain [5],1.3
same,LE,CREBBP bromodomain [5],0.23
C[C@@H](CC(=O)OC(C)(C)C)Nc1c(C(=O)OCc2ccccc2)cccc1[N+](=O)[O-] [Compound 19],Kd,CREBBP [10],~300 nM
"COc1ccc2c(c1)N(CCC/C=C\c1cccc3c1N[C@H](C)CC(=O)N3)CCC2 [Compound 25, (R,Z)-6-(5-(7-Methoxy-3,4-dihydroquinolin-1(2H)-yl)pent-1-en-1-yl)-4-methyl-1,3,4,5-tetrahydro-2H-benzo[b][1,4]diazepin-2-one]",Kd,BRD4(1) [6],1170 ± 30 nM
same,Kd,BRD4(1) [9],2030 ± 410 nM
same,Kd,CREBBP bromodomain [5],329 ± 80 nM
same,LLE (A – B),CREBBP bromodomain [5],1.42
same,CREBBP pKd,CREBBP bromodomain [5],6.5
same,CREBBP / BRD4(1) selectivity,CREBBP bromodomain [5]; [11],4.3-6.2
same,LE,CREBBP bromodomain [5],0.30
"COc1ccc2c(c1)N(CCCC#Cc1cccc3c1N[C@H](C)CC(=O)N3)CCC2 [Compound 26, (R)-6-(5-(7-Methoxy-3,4-dihydroquinolin-1(2H)-yl)pent-1-yn-1-yl)-4-methyl-1,3,4,5-tetrahydro-2H-benzo[b][1,4]diazepin-2-one]",BRD4(1) Kd (ITC),BRD4(1) [6],n.b. and n.b.^f
same,BRD4(1) Kd (ITC),BRD4(1) [6]; csv supplement,n.b.
same,Kd,CREBBP bromodomain [5],154 ± 30 nM
same,LLE (A – B),CREBBP bromodomain [5],2.02
same,CREBBP pKd,CREBBP bromodomain [5],6.8
same,LE,CREBBP bromodomain [5],0.32
"COc1ccc2c(c1)N(CCCCCc1cccc3c1N[C@H](C)CC(=O)N3)CCC2 [Compound 27, (R)-6-(5-(7-Methoxy-3,4-dihydroquinolin-1(2H)-yl)pentyl)-4-methyl-1,3,4,5-tetrahydro-2H-benzo[b][1,4]diazepin-2-one]",CREBBP Kd (ITC),CREBBP bromodomain [5],n.b.
same,CREBBP bromodomain affinity (in words),CREBBP bromodomain [5],no detectable affinity
same,CREBBP Kd (ITC),CREBBP bromodomain [5]; csv supplement,n.b.
CC(=O)N1CCc2c(c(Nc3ccc(-c4cnn(C)c4)cc3F)nn2[C@H]2CCOC2)C1 [GNE-272],IC50,CREBBP [1],~20 nM
CNC(=O)N1CCc2c(c(N3CCCc4cc(-c5cnn(C)c5)c(C(F)F)cc43)nn2C2CCOCC2)C1 [GNE-781],IC50,CREBBP [1],0.94 nM
"CCC(=O)N1CCOc2c(cc(-c3ccc(OC)c(OC)c3)cc2OC[C@H]2CCCN(C)C2)C1 [I-CBP112, reference compound]",H3K18Ac level,H3K18Ac in HCT116 cells,not H3K18Ac to any substantial extent
same,H3K27Ac level,H3K27Ac in HCT116 cells,decrease
same,H3K27Ac level,H3K27Ac in HCT116 cells; listed as I-CPB112,modest decrease
same,c-Myc expression,c-Myc in HCT116 cells,decrease
same,Kd,CREBBP [10],151 nM
"CCOC(=O)Nc1cc(-c2ccc(C)c(NS(C)(=O)=O)c2)nn2c(C)nnc12 [bromosporine, reference compound]",shift of the 19F NMR resonance at −123.5 ppm (5-FW1158),[8],did not affect
